Experimental data taken from US12077503B2, “Substituted cyclic amides and their use as herbicides” (FMC CORPORATION, priority 2015, dated 2024).

Key:
Format in all cases: in vivo
[1] = test system: Kochia (Kochia scoparia); assay: Test A preemergence; conditions: for Plant response rating, Kochia: 125 g ai/ha, preemergence, 0 to 100 scale (0 no effect, 100 complete control); for Kochia plant response rating (0 to 100 scale, 0 is no effect, 100 is complete control): Preemergence, 500 g ai/ha, visual injury approx. 10 d
Method in brief: (§1)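 In a loam soil and sand blend, planted seeds got a preemergence directed soil spray, and young plants at the one- to two-leaf stage, 2–10 cm high, got a postemergence application; ~10 d greenhouse hold; injury rated visually, 0 = none, 100 = complete control.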

[2] = test system: barnyardgrass (Echinochloa crus-galli); assay: Test A preemergence; conditions: for Plant response rating, Barnyardgrass: 125 g ai/ha, preemergence, 0 to 100 scale (0 no effect, 100 complete control); for Barnyardgrass plant response rating (0 to 100 scale, 0 is no effect, 100 is complete control): Preemergence, 500 g ai/ha, visual injury approx. 10 d
Method in brief: as §1

[3] = test system: giant foxtail (Setaria faberii); assay: Test A preemergence; conditions: for Plant response rating, Foxtail, Giant: 125 g ai/ha, preemergence, 0 to 100 scale (0 no effect, 100 complete control); for Foxtail, Giant plant response rating (0 to 100 scale, 0 is no effect, 100 is complete control): Preemergence, 500 g ai/ha, visual injury approx. 10 d
Method in brief: as §1

[4] = test system: pigweed (Amaranthus retroflexus); assay: Test A preemergence; conditions: for Plant response rating, Pigweed: 125 g ai/ha, preemergence, 0 to 100 scale (0 no effect, 100 complete control); for Pigweed plant response rating (0 to 100 scale, 0 is no effect, 100 is complete control): Preemergence, 500 g ai/ha, visual injury approx. 10 d
[5] = test system: ragweed (common ragweed, Ambrosia elatior); assay: Test A preemergence; conditions: for Plant response rating, Ragweed: 125 g ai/ha, preemergence, 0 to 100 scale (0 no effect, 100 complete control); for Ragweed plant response rating (0 to 100 scale, 0 is no effect, 100 is complete control): Preemergence, 500 g ai/ha, visual injury approx. 10 d
Method in brief: as §1

[6] = test system: ryegrass, Italian (Italian ryegrass, Lolium multiflorum); assay: Test A preemergence; conditions: for Plant response rating, Ryegrass, Italian: 125 g ai/ha, preemergence, 0 to 100 scale (0 no effect, 100 complete control); for Ryegrass, Italian plant response rating (0 to 100 scale, 0 is no effect, 100 is complete control): Preemergence, 500 g ai/ha, visual injury approx. 10 d
Method in brief: as §1

[7] = test system: Galium (catchweed bedstraw, Galium aparine); assay: Test A postemergence; conditions: postemergence; for Galium plant response rating: 125 g ai/ha, visual injury rating on 0 to 100 scale (0 no effect, 100 complete control), approx. 10 d; for Plant response rating, Galium: 500 g ai/ha, 0 to 100 scale, 0 no effect, 100 complete control
Method in brief: as §1

[8] = test system: Kochia (Kochia scoparia); assay: Test A postemergence; conditions: postemergence; for Kochia plant response rating: 125 g ai/ha, visual injury rating on 0 to 100 scale (0 no effect, 100 complete control), approx. 10 d; for Plant response rating, Kochia: 500 g ai/ha, 0 to 100 scale, 0 no effect, 100 complete control
Method in brief: as §1

[9] = test system: barnyardgrass (Echinochloa crus-galli); assay: Test A postemergence; conditions: postemergence; for Barnyardgrass plant response rating: 125 g ai/ha, visual injury rating on 0 to 100 scale (0 no effect, 100 complete control), approx. 10 d; for Plant response rating, Barnyardgrass: 500 g ai/ha, 0 to 100 scale, 0 no effect, 100 complete control
Method in brief: as §1

[10] = test system: blackgrass (Alopecurus myosuroides); assay: Test A postemergence; conditions: postemergence; for Blackgrass plant response rating: 125 g ai/ha, visual injury rating on 0 to 100 scale (0 no effect, 100 complete control), approx. 10 d; for Plant response rating, Blackgrass: 500 g ai/ha, 0 to 100 scale, 0 no effect, 100 complete control
Method in brief: as §1

[11] = test system: corn (Zea mays); assay: Test A postemergence; conditions: postemergence; for Corn plant response rating: 125 g ai/ha, visual injury rating on 0 to 100 scale (0 no effect, 100 complete control), approx. 10 d; for Plant response rating, Corn: 500 g ai/ha, 0 to 100 scale, 0 no effect, 100 complete control
Method in brief: as §1

[12] = test system: giant foxtail (Setaria faberii); assay: Test A postemergence; conditions: postemergence; for Foxtail, Giant plant response rating: 125 g ai/ha, visual injury rating on 0 to 100 scale (0 no effect, 100 complete control), approx. 10 d; for Plant response rating, Foxtail, Giant: 500 g ai/ha, 0 to 100 scale, 0 no effect, 100 complete control
Method in brief: as §1

[13] = test system: pigweed (Amaranthus retroflexus); assay: Test A postemergence; conditions: postemergence; for Pigweed plant response rating: 125 g ai/ha, visual injury rating on 0 to 100 scale (0 no effect, 100 complete control), approx. 10 d; for Plant response rating, Pigweed: 500 g ai/ha, 0 to 100 scale, 0 no effect, 100 complete control
Method in brief: as §1

[14] = test system: ragweed (common ragweed, Ambrosia elatior); assay: Test A postemergence; conditions: postemergence; for Ragweed plant response rating: 125 g ai/ha, visual injury rating on 0 to 100 scale (0 no effect, 100 complete control), approx. 10 d; for Plant response rating, Ragweed: 500 g ai/ha, 0 to 100 scale, 0 no effect, 100 complete control
Method in brief: as §1

[15] = test system: ryegrass, Italian (Italian ryegrass, Lolium multiflorum); assay: Test A postemergence; conditions: postemergence; for Ryegrass, Italian plant response rating: 125 g ai/ha, visual injury rating on 0 to 100 scale (0 no effect, 100 complete control), approx. 10 d; for Plant response rating, Ryegrass, Italian: 500 g ai/ha, 0 to 100 scale, 0 no effect, 100 complete control
Method in brief: as §1

[16] = test system: wheat (Triticum aestivum); assay: Test A postemergence; conditions: postemergence; for Wheat plant response rating: 125 g ai/ha, visual injury rating on 0 to 100 scale (0 no effect, 100 complete control), approx. 10 d; for Plant response rating, Wheat: 500 g ai/ha, 0 to 100 scale, 0 no effect, 100 complete control
Method in brief: as §1

[17] = test system: barnyardgrass (Echinochloa crus-galli); assay: Test B flooded paddy test; conditions: Flood, 500 g ai/ha; 0 to 100 scale where 0 is no effect and 100 is complete control; 13 to 15 d
Method in brief: (§2)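 2-leaf plants; pots flooded 3 cm over soil; cpd added to paddy water; depth held; greenhouse 13–15 d; visual rating vs controls, 0 = no effect, 100 = complete control.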

[18] = test system: ducksalad (Heteranthera limosa); assay: Test B flooded paddy test; conditions: Flood, 500 g ai/ha; 0 to 100 scale where 0 is no effect and 100 is complete control; 13 to 15 d
Method in brief: as §2

[19] = test system: rice (Oryra sativa); assay: Test B flooded paddy test; conditions: Flood, 500 g ai/ha; 0 to 100 scale where 0 is no effect and 100 is complete control; 13 to 15 d
Method in brief: as §2

[20] = test system: sedge, umbrella (small-flower umbrella sedge, Cyperus difformis); assay: Test B flooded paddy test; conditions: Flood, 500 g ai/ha; 0 to 100 scale where 0 is no effect and 100 is complete control; 13 to 15 d
Method in brief: as §2

O=C1NCC(c2ccc(F)c(F)c2)C1C(=O)Nc1ccc(Cl)cc1F (stereo not drawn) [Compound 410]
30: Plant response rating, Ducksalad [18]
80: Foxtail, Giant plant response rating (0 to 100 scale, 0 is no effect, 100 is complete control) [3]
60: Barnyardgrass plant response rating (0 to 100 scale, 0 is no effect, 100 is complete control) [2]
70: Plant response rating, Foxtail, Giant [3]
20: Pigweed plant response rating (0 to 100 scale, 0 is no effect, 100 is complete control) [4] | Barnyardgrass plant response rating [9] | Plant response rating, Blackgrass [10] | Plant response rating, Pigweed [13]
0: Plant response rating, Kochia [1] | Kochia plant response rating (0 to 100 scale, 0 is no effect, 100 is complete control) [1] | Plant response rating, Pigweed [4] | Plant response rating, Ragweed [5] | Ragweed plant response rating (0 to 100 scale, 0 is no effect, 100 is complete control) [5] | Plant response rating, Ryegrass, Italian [6] | Ryegrass, Italian plant response rating (0 to 100 scale, 0 is no effect, 100 is complete control) [6] | Galium plant response rating [7] | Plant response rating, Galium [7] | Kochia plant response rating [8] | Plant response rating, Kochia [8] | Blackgrass plant response rating [10] | Corn plant response rating [11] | Plant response rating, Corn [11] | Foxtail, Giant plant response rating [12] | Pigweed plant response rating [13] | Ragweed plant response rating [14] | Plant response rating, Ragweed [14] | Ryegrass, Italian plant response rating [15] | Plant response rating, Ryegrass, Italian [15] | Wheat plant response rating [16] | Plant response rating, Wheat [16] | Plant response rating, Barnyardgrass [17] | Plant response rating, Rice [19] | Plant response rating, Sedge, Umbrella [20]
40: Plant response rating, Foxtail, Giant [12]
50: Plant response rating, Barnyardgrass [2] | Plant response rating, Barnyardgrass [9]

Cc1cc(NC(=O)C2C(=O)NCC2c2ccc(F)c(F)c2)ccc1C(F)(F)F (stereo not drawn) [Compound 414]
10: Foxtail, Giant plant response rating (0 to 100 scale, 0 is no effect, 100 is complete control) [3] | Plant response rating, Kochia [8]
40: Plant response rating, Ducksalad [18]
0: Plant response rating, Kochia [1] | Kochia plant response rating (0 to 100 scale, 0 is no effect, 100 is complete control) [1] | Plant response rating, Barnyardgrass [2] | Barnyardgrass plant response rating (0 to 100 scale, 0 is no effect, 100 is complete control) [2] | Plant response rating, Foxtail, Giant [3] | Plant response rating, Pigweed [4] | Pigweed plant response rating (0 to 100 scale, 0 is no effect, 100 is complete control) [4] | Plant response rating, Ragweed [5] | Ragweed plant response rating (0 to 100 scale, 0 is no effect, 100 is complete control) [5] | Plant response rating, Ryegrass, Italian [6] | Ryegrass, Italian plant response rating (0 to 100 scale, 0 is no effect, 100 is complete control) [6] | Galium plant response rating [7] | Plant response rating, Galium [7] | Kochia plant response rating [8] | Barnyardgrass plant response rating [9] | Plant response rating, Barnyardgrass [9] | Blackgrass plant response rating [10] | Plant response rating, Blackgrass [10] | Corn plant response rating [11] | Plant response rating, Corn [11] | Foxtail, Giant plant response rating [12] | Plant response rating, Foxtail, Giant [12] | Pigweed plant response rating [13] | Plant response rating, Pigweed [13] | Ragweed plant response rating [14] | Plant response rating, Ragweed [14] | Ryegrass, Italian plant response rating [15] | Plant response rating, Ryegrass, Italian [15] | Wheat plant response rating [16] | Plant response rating, Wheat [16] | Plant response rating, Barnyardgrass [17] | Plant response rating, Rice [19] | Plant response rating, Sedge, Umbrella [20]

COc1cccc(NC(=O)C2C(=O)NCC2c2ccc(F)c(F)c2)c1F (stereo not drawn) [Compound 416]
50: Foxtail, Giant plant response rating (0 to 100 scale, 0 is no effect, 100 is complete control) [3] | Plant response rating, Ducksalad [18]
0: Plant response rating, Kochia [1] | Kochia plant response rating (0 to 100 scale, 0 is no effect, 100 is complete control) [1] | Plant response rating, Barnyardgrass [2] | Barnyardgrass plant response rating (0 to 100 scale, 0 is no effect, 100 is complete control) [2] | Plant response rating, Foxtail, Giant [3] | Plant response rating, Pigweed [4] | Pigweed plant response rating (0 to 100 scale, 0 is no effect, 100 is complete control) [4] | Plant response rating, Ragweed [5] | Ragweed plant response rating (0 to 100 scale, 0 is no effect, 100 is complete control) [5] | Plant response rating, Ryegrass, Italian [6] | Ryegrass, Italian plant response rating (0 to 100 scale, 0 is no effect, 100 is complete control) [6] | Galium plant response rating [7] | Plant response rating, Galium [7] | Kochia plant response rating [8] | Plant response rating, Kochia [8] | Barnyardgrass plant response rating [9] | Plant response rating, Barnyardgrass [9] | Blackgrass plant response rating [10] | Plant response rating, Blackgrass [10] | Corn plant response rating [11] | Plant response rating, Corn [11] | Foxtail, Giant plant response rating [12] | Plant response rating, Foxtail, Giant [12] | Pigweed plant response rating [13] | Plant response rating, Pigweed [13] | Ragweed plant response rating [14] | Plant response rating, Ragweed [14] | Ryegrass, Italian plant response rating [15] | Plant response rating, Ryegrass, Italian [15] | Wheat plant response rating [16] | Plant response rating, Wheat [16] | Plant response rating, Barnyardgrass [17] | Plant response rating, Sedge, Umbrella [20]
15: Plant response rating, Rice [19]
